# Results as given in ChEMBL document CHEMBL3046341, “Synthesis of an indolizidinedione oxime inhibitor of acetyl-coenzyme a carboxylase (ACCase)” (Bioorg Med Chem Lett, 1994).
# Assay: Inhibition of acetyl-coenzyme A carboxylase
# Conditions: read-out: I50
row,IC50,SMILES
1,15 µM,O=C1C(c2ccc(Cl)cc2Cl)=C(O)N2CCCCC12 (stereo not drawn)
2,80 µM,C=CCO/N=C(\CCC)C1=C(O)N2CCCCC2C1=O (stereo not drawn)

row,SMILES,IC50
1,CCO/N=C(\CC)C1=C(O)CC(c2c(C)cc(C)cc2C)CC1=O (stereo not drawn) [TRALKOXYDIM],1 µM
